In brackets after ≈: the same amount, converted by molar mass.
Legend:
Type in all cases: cell-based
[1] = test system: KLEBSIELLA PNEUMONIAE ATCC 8045; assay: In vitro antibacterial activity, MIC, BHI agar dilution; settings: K. pneumoniae ATCC 8045, unit assumed
[2] = test system: MYCOBACTERIUM SMEGMATIS ATCC 114; assay: as above; settings: M. smegmatis ATCC 114, unit assumed
[3] = test system: STREPTOCOCCUS PYOGENES 930; assay: as above; settings: S. pyogenes 930, unit assumed
[4] = test system: PROVIDENCIA STUARTII CMX 640; settings: P. stuartii CMX 640; BHI agar; unit assumed
[5] = test system: STAPHYLOCOCCUS EPIDERMIDIS 3519; settings: S. epidermidis 3519; BHI agar; unit assumed
[6] = test system: STAPHYLOCOCCUS AUREUS CMX 642A; assay: In vitro antibacterial activity, MIC, BHI agar dilution; settings: S. aureus CMX 642A, unit assumed
[7] = test system: PSEUDOMONAS AERUGINOSA K799/61; assay: as above; settings: P. aeruginosa K799/61, unit assumed
[8] = test system: PSEUDOMONAS AERUGINOSA K799/WT; assay: as above; settings: P. aeruginosa K799/WT, unit assumed
[9] = test system: ESCHERICHIA COLI H560; assay: as above; settings: E. coli H560, unit assumed
[10] = test system: PSEUDOMONAS AERUGINOSA DPHD-5263; assay: as above; settings: P. aeruginosa DPHD-5263, unit assumed
[11] = test system: STAPHYLOCOCCUS AUREUS A-5278; assay: as above; settings: S. aureus A-5278, unit assumed
[12] = test system: ESCHERICHIA COLI JUHL; settings: E. coli JUHL; BHI agar; unit assumed
[13] = test system: ESCHERICHIA COLI DC-2; assay: In vitro antibacterial activity, MIC, BHI agar dilution; settings: E. coli DC-2, unit assumed
[14] = test system: STREPTOCOCCUS PYOGENES EES61; assay: as above; settings: S. pyogenes EES61, unit assumed
[15] = test system: STR[…] 508; assay: as above; settings: S. agalactiae CMX 508, unit assumed
Procedure, shortened: (§1)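 Agar dilution in BHI: plates inoculated with 1:100 dilutions of organisms (1:10 for Micrococcus and Streptococcus), incubated 20-24 h at 35-37° C, then inspected for the lowest inhibitory concentration against a drug-free growth control.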

[16] = test system: M[…] ATCC 4698; assay: as above; settings: M. luteus ATCC 4698, unit assumed
Procedure, shortened: as §1

[17] = test system: EN[…] ATCC 8043; assay: as above; settings: E. faecium ATCC 8043, unit assumed
Procedure, shortened: as §1

[18] = test system: M[…] ATCC 9341; assay: as above; settings: M. luteus ATCC 9341, unit assumed
Procedure, shortened: as §1

[19] = test system: ENTEROBACTER AEROGENES ATCC 13048; assay: as above; settings: E. aerogenes ATCC 13048, unit assumed
[20] = test system: STREPTOCOCCUS BOVIS A-5169; assay: as above; settings: S. bovis A-5169, unit assumed
[21] = test system: CANDIDA ALBICANS CCH 442; assay: as above; settings: C. albicans CCH 442, unit assumed
[22] = test system: PSEUDOMONAS AERUGINOSA DPHD-2862; assay: as above; settings: P. aeruginosa DPHD-2862, unit assumed
[23] = test system: PSEUDOMONAS CEPACIA 296I; assay: as above; settings: P. cepacia 296I, unit assumed
[24] = test system: ACINETOBACTER CALCOACETICUS CMX 669; assay: as above; settings: A. calcoaceticus CMX 669, unit assumed
[25] = test system: PSEUDOMONAS AERUGINOSA BMH10; assay: as above; settings: P. aeruginosa BMH10, unit assumed
[26] = test system: STAPHYLOCOCCUS AUREUS CMX 553; assay: as above; settings: S. aureus CMX 553, unit assumed
[27] = test system: ESCHERICHIA COLI KNK 437; settings: E. coli KNK 437; BHI agar; unit assumed
[28] = test system: STREPTOCOCCUS PYOGENES PIU 2548; assay: In vitro antibacterial activity, MIC, BHI agar dilution; settings: S. pyogenes PIU 2548, unit assumed
[29] = test system: PSEUDOMONAS AERUGINOSA 5007; assay: as above; settings: P. aeruginosa 5007, unit assumed
[30] = test system: STAPHYLOCOCCUS AUREUS 1775; assay: as above; settings: S. aureus 1775, unit assumed
[31] = test system: ESCHERICHIA COLI SS; assay: as above; settings: E. coli SS, unit assumed
[32] = test system: STAPHYLOCOCCUS AUREUS ATCC 6538P; assay: as above; settings: S. aureus ATCC 6538P, 35-37° C., 20 to 24 hours, unit assumed
[33] = test system: STAPHYLOCOCCUS AUREUS NCTC10649M; assay: as above; settings: S. aureus NCTC10649M, unit assumed
[34] = test system: STAPHYLOCOCCUS AUREUS A5177; assay: as above; settings: S. aureus A5177, unit assumed

| Compound | MIC [2] [µg/mL] | MIC [3] [µg/mL] | MIC [4] [µg/mL] | MIC [5] [µg/mL] | MIC [6] [µg/mL] | MIC [7] [µg/mL] | MIC [8] [µg/mL] | MIC [9] [µg/mL] | MIC [10] [µg/mL] | MIC [11] [µg/mL] | MIC [12] [µg/mL] | MIC [14] [µg/mL] | MIC [15] [µg/mL] | MIC [16] [µg/mL] | MIC [17] [µg/mL] | MIC [18] [µg/mL] | MIC [19] [µg/mL] | MIC [20] [µg/mL] | MIC [21] [µg/mL] | MIC [22] [µg/mL] | other results |
| --- | --- | --- | --- | --- | --- | --- | --- | --- | --- | --- | --- | --- | --- | --- | --- | --- | --- | --- | --- | --- | --- |
| CC[C@H]1OC(=O)[C@H](C)C(=O)[C@H](C)[C@@H](O[C@@H]2O[C@H](C)C[C@H](N(C)C)[C@H]2O)[C@](C)(OC)C[C@@H](C)C2=NC3CN(CCOC)CC3N3C(=O)O[C@@]1(C)[C@H]3[C@H]2C (some centres unmarked) [Example 126] | 12.5 (≈ 17 µM) | > 100 | > 100 | 1.56 (≈ 2.12 µM) | 1.56 (≈ 2.12 µM) | 3.1 (≈ 4.21 µM) | > 100 | > 100 | > 100 | > 100 | > 100 | 0.05 (≈ 0.0678 µM) | 0.05 (≈ 0.0678 µM) | 0.78 (≈ 1.06 µM) | 0.2 (≈ 0.271 µM) | 0.2 (≈ 0.271 µM) | > 100 | 0.02 (≈ 0.0271 µM) | > 100 | > 100 | MIC [1]: > 100 µg/mL; MIC [13]: > 100 µg/mL; MIC [23]: > 100 µg/mL; MIC [24]: 100 µg/mL (≈ 136 µM); MIC [25]: > 100 µg/mL; MIC [26]: 1.56 µg/mL (≈ 2.12 µM); MIC [27]: > 100 µg/mL; MIC [28]: 1.56 µg/mL (≈ 2.12 µM); MIC [29]: > 100 µg/mL; MIC [30]: > 100 µg/mL; MIC [31]: 0.78 µg/mL (≈ 1.06 µM) |
| CC[C@H]1OC(=O)[C@H](C)C(=O)[C@H](C)[C@@H](O[C@@H]2O[C@H](C)C[C@H](N(C)C)[C@H]2O)[C@](C)(OC)C[C@@H](C)C2=NC[C@H](Cc3ccccc3)N3C(=O)O[C@@]1(C)[C@H]3[C@H]2C [Example 5] | 0.2 (≈ 0.275 µM) | > 100 | > 100 | 0.2 (≈ 0.275 µM) | 0.2 (≈ 0.275 µM) | 0.78 (≈ 1.07 µM) | 50 (≈ 68.7 µM) | 3.1 (≈ 4.26 µM) | > 100 | > 100 | 12.5 (≈ 17.2 µM) | 0.02 (≈ 0.0275 µM) | 0.02 (≈ 0.0275 µM) | 0.2 (≈ 0.275 µM) | 0.05 (≈ 0.0687 µM) | 0.05 (≈ 0.0687 µM) | 50 (≈ 68.7 µM) | 0.01 (≈ 0.0137 µM) | > 100 | > 100 | MIC [32]: 0.2 µg/mL (≈ 0.275 µM); MIC [23]: 25 µg/mL (≈ 34.3 µM); MIC [24]: 12.5 µg/mL (≈ 17.2 µM); MIC [25]: 50 µg/mL (≈ 68.7 µM); MIC [26]: 0.2 µg/mL (≈ 0.275 µM); MIC [27]: 6.2 µg/mL (≈ 8.52 µM); MIC [28]: 0.39 µg/mL (≈ 0.536 µM); MIC [29]: > 100 µg/mL; MIC [30]: > 100 µg/mL; MIC [33]: 0.2 µg/mL (≈ 0.275 µM); MIC [31]: 0.39 µg/mL (≈ 0.536 µM) |
| CC[C@H]1OC(=O)[C@H](C)C(=O)[C@H](C)[C@@H](O[C@@H]2O[C@H](C)C[C@H](N(C)C)[C@H]2O)[C@](C)(OC)C[C@@H](C)C2=NCC(COC(=O)c3cc4ccccc4n3C)N3C(=O)O[C@@]1(C)[C@H]3[C@H]2C (some centres unmarked) [Example 143] | 0.2 (≈ 0.242 µM) | 50 (≈ 60.6 µM) | > 100 | 0.2 (≈ 0.242 µM) | 0.2 (≈ 0.242 µM) | 1.56 (≈ 1.89 µM) | > 100 | 25 (≈ 30.3 µM) | > 100 | 50 (≈ 60.6 µM) | 50 (≈ 60.6 µM) | 0.02 (≈ 0.0242 µM) | 0.02 (≈ 0.0242 µM) | 0.2 (≈ 0.242 µM) | 0.02 (≈ 0.0242 µM) | 0.01 (≈ 0.0121 µM) | > 100 | 0.01 (≈ 0.0121 µM) | 100 (≈ 121 µM) | > 100 | MIC [1]: > 100 µg/mL; MIC [34]: 0.2 µg/mL (≈ 0.242 µM); MIC [13]: 50 µg/mL (≈ 60.6 µM); MIC [32]: 0.1 µg/mL (≈ 0.121 µM); MIC [23]: 50 µg/mL (≈ 60.6 µM); MIC [25]: > 100 µg/mL; MIC [26]: 0.2 µg/mL (≈ 0.242 µM); MIC [27]: 50 µg/mL (≈ 60.6 µM); MIC [28]: 0.39 µg/mL (≈ 0.473 µM); MIC [29]: > 100 µg/mL; MIC [30]: 50 µg/mL (≈ 60.6 µM); MIC [33]: 0.2 µg/mL (≈ 0.242 µM); MIC [31]: 0.78 µg/mL (≈ 0.945 µM) |

— patent publication US6274715A, “Tricyclic erythromycin derivatives” (priority 1997, dated 2001)
